In brackets after ≈: the same amount, converted by molar mass.
What was measured:
Assay type in all cases: functional
Penicillium [1] = assay: Antimicrobial activity against Penicillium wild strain assessed as diameter of growth inhibition zone at 250 ug/ml after 48-96 hr by agar cup diffusion method; settings: read-out: DIZ
Penicillium [2] = assay: Antimicrobial activity against Penicillium wild strain assessed as diameter of growth inhibition zone at 100 ug/ml after 48-96 hr by agar cup diffusion method; settings: read-out: DIZ
Trichophyton rubrum [3] = assay: Antimicrobial activity against Trichophyton rubrum MTCC 296 assessed as diameter of growth inhibition zone at 100 ug/ml after 48-96 hr by agar cup diffusion method; settings: read-out: DIZ
Aspergillus clavatus [4] = assay: Antimicrobial activity against Aspergillus clavatus MTCC 1323 assessed as diameter of growth inhibition zone at 100 ug/ml after 48-96 hr by agar cup diffusion method; settings: read-out: DIZ
Candida albicans [5] = assay: Antimicrobial activity against Candida albicans MTCC 227 assessed as diameter of growth inhibition zone at 100 ug/ml after 48-96 hr by agar cup diffusion method; settings: read-out: DIZ
Penicillium [6] = assay: Antimicrobial activity against Penicillium wild strain assessed as diameter of growth inhibition zone at 50 ug/ml after 48-96 hr by agar cup diffusion method; settings: read-out: DIZ
Trichophyton rubrum [7] = assay: Antimicrobial activity against Trichophyton rubrum MTCC 296 assessed as diameter of growth inhibition zone at 50 ug/ml after 48-96 hr by agar cup diffusion method; settings: read-out: DIZ
Aspergillus clavatus [8] = assay: Antimicrobial activity against Aspergillus clavatus MTCC 1323 assessed as diameter of growth inhibition zone at 50 ug/ml after 48-96 hr by agar cup diffusion method; settings: read-out: DIZ
Candida albicans [9] = assay: Antimicrobial activity against Candida albicans MTCC 227 assessed as diameter of growth inhibition zone at 50 ug/ml after 48-96 hr by agar cup diffusion method; settings: read-out: DIZ
Penicillium [10] = assay: Antimicrobial activity against Penicillium wild strain assessed as diameter of growth inhibition zone at 25 ug/ml after 48-96 hr by agar cup diffusion method; settings: read-out: DIZ
Trichophyton rubrum [11] = assay: Antimicrobial activity against Trichophyton rubrum MTCC 296 assessed as diameter of growth inhibition zone at 25 ug/ml after 48-96 hr by agar cup diffusion method; settings: read-out: DIZ
Aspergillus clavatus [12] = assay: Antimicrobial activity against Aspergillus clavatus MTCC 1323 assessed as diameter of growth inhibition zone at 25 ug/ml after 48-96 hr by agar cup diffusion method; settings: read-out: DIZ
Candida albicans [13] = assay: Antimicrobial activity against Candida albicans MTCC 227 assessed as diameter of growth inhibition zone at 25 ug/ml after 48-96 hr by agar cup diffusion method; settings: read-out: DIZ
Penicillium [14] = assay: Antimicrobial activity against Penicillium wild strain by agar cup diffusion method
Aspergillus clavatus [15] = assay: Antimicrobial activity against Aspergillus clavatus MTCC 1323 by agar cup diffusion method
Pseudomonas aeruginosa [16] = assay: Antimicrobial activity against Pseudomonas aeruginosa MTCC 1688 assessed as diameter of growth inhibition zone at 25 ug/ml after 18-24 hr by agar cup diffusion method; settings: read-out: DIZ
Escherichia coli [17] = assay: Antimicrobial activity against Escherichia coli MTCC 443 assessed as diameter of growth inhibition zone at 25 ug/ml after 18-24 hr by agar cup diffusion method; settings: read-out: DIZ
Staphylococcus aureus [18] = assay: Antimicrobial activity against Staphylococcus aureus MTCC 96 assessed as diameter of growth inhibition zone at 25 ug/ml after 18-24 hr by agar cup diffusion method; settings: read-out: DIZ
Streptococcus pyogenes [19] = assay: Antimicrobial activity against Streptococcus pyogenes MTCC 442 assessed as diameter of growth inhibition zone at 25 ug/ml after 18-24 hr by agar cup diffusion method; settings: read-out: DIZ
Klebsiella pneumoniae [20] = assay: Antimicrobial activity against Klebsiella pneumoniae MTCC 109 by agar cup diffusion method
Escherichia coli [21] = assay: Antimicrobial activity against Escherichia coli MTCC 443 by agar cup diffusion method
Pseudomonas aeruginosa [22] = assay: Antimicrobial activity against Pseudomonas aeruginosa MTCC 1688 by agar cup diffusion method
Staphylococcus aureus [23] = assay: Antimicrobial activity against Staphylococcus aureus MTCC 96 by agar cup diffusion method
Streptococcus pyogenes [24] = assay: Antimicrobial activity against Streptococcus pyogenes MTCC 442 by agar cup diffusion method
Trichophyton rubrum [25] = assay: Antimicrobial activity against Trichophyton rubrum MTCC 296 by agar cup diffusion method
Candida albicans [26] = assay: Antimicrobial activity against Candida albicans MTCC 227 by agar cup diffusion method
Klebsiella pneumoniae [27] = assay: Antimicrobial activity against Klebsiella pneumoniae MTCC 109 assessed as diameter of growth inhibition zone at 250 ug/ml after 18-24 hr by agar cup diffusion method; settings: read-out: DIZ
Pseudomonas aeruginosa [28] = assay: Antimicrobial activity against Pseudomonas aeruginosa MTCC 1688 assessed as diameter of growth inhibition zone at 250 ug/ml after 18-24 hr by agar cup diffusion method; settings: read-out: DIZ
Escherichia coli [29] = assay: Antimicrobial activity against Escherichia coli MTCC 443 assessed as diameter of growth inhibition zone at 250 ug/ml after 18-24 hr by agar cup diffusion method; settings: read-out: DIZ
Staphylococcus aureus [30] = assay: Antimicrobial activity against Staphylococcus aureus MTCC 96 assessed as diameter of growth inhibition zone at 250 ug/ml after 18-24 hr by agar cup diffusion method; settings: read-out: DIZ
Streptococcus pyogenes [31] = assay: Antimicrobial activity against Streptococcus pyogenes MTCC 442 assessed as diameter of growth inhibition zone at 250 ug/ml after 18-24 hr by agar cup diffusion method; settings: read-out: DIZ
Klebsiella pneumoniae [32] = assay: Antimicrobial activity against Klebsiella pneumoniae MTCC 109 assessed as diameter of growth inhibition zone at 100 ug/ml after 18-24 hr by agar cup diffusion method; settings: read-out: DIZ
Pseudomonas aeruginosa [33] = assay: Antimicrobial activity against Pseudomonas aeruginosa MTCC 1688 assessed as diameter of growth inhibition zone at 100 ug/ml after 18-24 hr by agar cup diffusion method; settings: read-out: DIZ
Escherichia coli [34] = assay: Antimicrobial activity against Escherichia coli MTCC 443 assessed as diameter of growth inhibition zone at 100 ug/ml after 18-24 hr by agar cup diffusion method; settings: read-out: DIZ
Staphylococcus aureus [35] = assay: Antimicrobial activity against Staphylococcus aureus MTCC 96 assessed as diameter of growth inhibition zone at 100 ug/ml after 18-24 hr by agar cup diffusion method; settings: read-out: DIZ
Streptococcus pyogenes [36] = assay: Antimicrobial activity against Streptococcus pyogenes MTCC 442 assessed as diameter of growth inhibition zone at 100 ug/ml after 18-24 hr by agar cup diffusion method; settings: read-out: DIZ
Klebsiella pneumoniae [37] = assay: Antimicrobial activity against Klebsiella pneumoniae MTCC 109 assessed as diameter of growth inhibition zone at 50 ug/ml after 18-24 hr by agar cup diffusion method; settings: read-out: DIZ
Pseudomonas aeruginosa [38] = assay: Antimicrobial activity against Pseudomonas aeruginosa MTCC 1688 assessed as diameter of growth inhibition zone at 50 ug/ml after 18-24 hr by agar cup diffusion method; settings: read-out: DIZ
Escherichia coli [39] = assay: Antimicrobial activity against Escherichia coli MTCC 443 assessed as diameter of growth inhibition zone at 50 ug/ml after 18-24 hr by agar cup diffusion method; settings: read-out: DIZ
Staphylococcus aureus [40] = assay: Antimicrobial activity against Staphylococcus aureus MTCC 96 assessed as diameter of growth inhibition zone at 50 ug/ml after 18-24 hr by agar cup diffusion method; settings: read-out: DIZ
Streptococcus pyogenes [41] = assay: Antimicrobial activity against Streptococcus pyogenes MTCC 442 assessed as diameter of growth inhibition zone at 50 ug/ml after 18-24 hr by agar cup diffusion method; settings: read-out: DIZ
Klebsiella pneumoniae [42] = assay: Antimicrobial activity against Klebsiella pneumoniae MTCC 109 assessed as diameter of growth inhibition zone at 25 ug/ml after 18-24 hr by agar cup diffusion method; settings: read-out: DIZ
Trichophyton rubrum [43] = assay: Antimicrobial activity against Trichophyton rubrum MTCC 296 assessed as diameter of growth inhibition zone at 250 ug/ml after 48-96 hr by agar cup diffusion method; settings: read-out: DIZ
Aspergillus clavatus [44] = assay: Antimicrobial activity against Aspergillus clavatus MTCC 1323 assessed as diameter of growth inhibition zone at 250 ug/ml after 48-96 hr by agar cup diffusion method; settings: read-out: DIZ
Candida albicans [45] = assay: Antimicrobial activity against Candida albicans MTCC 227 assessed as diameter of growth inhibition zone at 250 ug/ml after 48-96 hr by agar cup diffusion method; settings: read-out: DIZ

`O=C(/C=C/c1ccccc1O)C1C(=O)NC(=S)NC1=O` showed a zone of inhibition at 250 µg/mL (Penicillium [1]) of 23 mm, a zone of inhibition at 100 µg/mL (Penicillium [2]) of 22 mm and a zone of inhibition at 100 µg/mL (Trichophyton rubrum [3]) of 21 mm. The zone of inhibition at 100 µg/mL (Aspergillus clavatus [4]) was 20 mm, the zone of inhibition at 100 µg/mL (Candida albicans [5]) was 22 mm and the zone of inhibition at 50 µg/mL (Penicillium [6]) was 19 mm. The zone of inhibition at 50 µg/mL (Trichophyton rubrum [7]) was 21 mm, the zone of inhibition at 50 µg/mL (Aspergillus clavatus [8]) was 19 mm and the zone of inhibition at 50 µg/mL (Candida albicans [9]) was 19 mm. It also gave a zone of inhibition at 25 µg/mL (Penicillium [10]) of 18 mm, a zone of inhibition at 25 µg/mL (Trichophyton rubrum [11]) of 18 mm and a zone of inhibition at 25 µg/mL (Aspergillus clavatus [12]) of 18 mm. For the same compound, the zone of inhibition at 25 µg/mL (Candida albicans [13]) was 17 mm, the MFC (Penicillium [14]) was greater than 1000 µg/mL and the MIC (Penicillium [14]) was greater than 1000 µg/mL. For the same compound, the MFC (Aspergillus clavatus [15]) was greater than 1000 µg/mL, the MIC (Aspergillus clavatus [15]) was greater than 1000 µg/mL and the zone of inhibition at 25 µg/mL (Pseudomonas aeruginosa [16]) was 11 mm. It also gave a zone of inhibition at 25 µg/mL (Escherichia coli [17]) of 13 mm, a zone of inhibition at 25 µg/mL (Staphylococcus aureus [18]) of 11 mm and a zone of inhibition at 25 µg/mL (Streptococcus pyogenes [19]) of 13 mm. It also gave an MBC (Klebsiella pneumoniae [20]) of 250 µg/mL (≈ 861 µM), an MIC (Klebsiella pneumoniae [20]) of 200 µg/mL (≈ 689 µM) and an MBC (Escherichia coli [21]) of 200 µg/mL (≈ 689 µM). For the same compound, the MIC (Escherichia coli [21]) was 125 µg/mL (≈ 431 µM), the MBC (Pseudomonas aeruginosa [22]) was 250 µg/mL (≈ 861 µM) and the MIC (Pseudomonas aeruginosa [22]) was 250 µg/mL (≈ 861 µM). For the same compound, the MBC (Staphylococcus aureus [23]) was 500 µg/mL (≈ 1720 µM), the MIC (Staphylococcus aureus [23]) was 500 µg/mL (≈ 1720 µM) and the MBC (Streptococcus pyogenes [24]) was 200 µg/mL (≈ 689 µM). The MIC (Streptococcus pyogenes [24]) was 125 µg/mL (≈ 431 µM), the MFC (Trichophyton rubrum [25]) was greater than 1000 µg/mL and the MIC (Trichophyton rubrum [25]) was greater than 1000 µg/mL. The MFC (Candida albicans [26]) was greater than 1000 µg/mL, the MIC (Candida albicans [26]) was 1000 µg/mL (≈ 3440 µM) and the zone of inhibition at 250 µg/mL (Klebsiella pneumoniae [27]) was 17 mm. For the same compound, the zone of inhibition at 250 µg/mL (Pseudomonas aeruginosa [28]) was 19 mm, the zone of inhibition at 250 µg/mL (Escherichia coli [29]) was 17 mm and the zone of inhibition at 250 µg/mL (Staphylococcus aureus [30]) was 19 mm. The zone of inhibition at 250 µg/mL (Streptococcus pyogenes [31]) was 17 mm, the zone of inhibition at 100 µg/mL (Klebsiella pneumoniae [32]) was 15 mm and the zone of inhibition at 100 µg/mL (Pseudomonas aeruginosa [33]) was 17 mm. The zone of inhibition at 100 µg/mL (Escherichia coli [34]) was 16 mm, the zone of inhibition at 100 µg/mL (Staphylococcus aureus [35]) was 17 mm and the zone of inhibition at 100 µg/mL (Streptococcus pyogenes [36]) was 16 mm. For the same compound, the zone of inhibition at 50 µg/mL (Klebsiella pneumoniae [37]) was 13 mm, the zone of inhibition at 50 µg/mL (Pseudomonas aeruginosa [38]) was 13 mm and the zone of inhibition at 50 µg/mL (Escherichia coli [39]) was 15 mm. It also gave a zone of inhibition at 50 µg/mL (Staphylococcus aureus [40]) of 13 mm, a zone of inhibition at 50 µg/mL (Streptococcus pyogenes [41]) of 15 mm and a zone of inhibition at 25 µg/mL (Klebsiella pneumoniae [42]) of 12 mm. It also gave a zone of inhibition at 250 µg/mL (Trichophyton rubrum [43]) of 22 mm, a zone of inhibition at 250 µg/mL (Aspergillus clavatus [44]) of 22 mm and a zone of inhibition at 250 µg/mL (Candida albicans [45]) of 24 mm.

Reference: ChEMBL document CHEMBL3044736, “Synthesis, characterization, solvatochromic properties, and antimicrobial evaluation of 5-acetyl-2-thioxo-dihydro-pyrimidine-4,6-dione-based chalcones” (2013)
